ChEMBL document CHEMBL3351304, “Bioactive constituents from the green alga Caulerpa racemosa” (Bioorg Med Chem, 2015)

How the values were obtained:
[1] = biological target: T1, Tyrosine-protein phosphatase non-receptor type 2 (Homo sapiens) (UniProt P17706); assay: Inhibition of TC-PTP (unknown origin) using pNPP as substrate at 20 ug/ml by spectrophotometry
T1 sequence (whole entry): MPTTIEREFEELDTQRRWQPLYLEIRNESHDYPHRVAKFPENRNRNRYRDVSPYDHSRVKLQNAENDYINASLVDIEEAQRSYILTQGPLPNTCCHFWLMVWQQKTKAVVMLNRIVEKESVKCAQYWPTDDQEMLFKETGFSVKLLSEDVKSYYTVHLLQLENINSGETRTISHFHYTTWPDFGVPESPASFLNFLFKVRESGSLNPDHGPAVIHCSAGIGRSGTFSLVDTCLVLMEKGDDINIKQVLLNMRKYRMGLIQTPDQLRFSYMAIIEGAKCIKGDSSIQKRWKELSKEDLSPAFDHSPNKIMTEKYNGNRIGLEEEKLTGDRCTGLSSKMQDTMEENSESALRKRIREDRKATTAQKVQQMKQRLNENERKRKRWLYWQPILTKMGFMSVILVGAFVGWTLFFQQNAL

[2] = biological target: Receptor-type tyrosine-protein phosphatase F (Homo sapiens) (UniProt P10586); assay: Inhibition of LAR (unknown origin) using pNPP as substrate at 20 ug/ml by spectrophotometry
Receptor-type tyrosine-protein phosphatase F (Homo sapiens), sequence (P10586 whole entry): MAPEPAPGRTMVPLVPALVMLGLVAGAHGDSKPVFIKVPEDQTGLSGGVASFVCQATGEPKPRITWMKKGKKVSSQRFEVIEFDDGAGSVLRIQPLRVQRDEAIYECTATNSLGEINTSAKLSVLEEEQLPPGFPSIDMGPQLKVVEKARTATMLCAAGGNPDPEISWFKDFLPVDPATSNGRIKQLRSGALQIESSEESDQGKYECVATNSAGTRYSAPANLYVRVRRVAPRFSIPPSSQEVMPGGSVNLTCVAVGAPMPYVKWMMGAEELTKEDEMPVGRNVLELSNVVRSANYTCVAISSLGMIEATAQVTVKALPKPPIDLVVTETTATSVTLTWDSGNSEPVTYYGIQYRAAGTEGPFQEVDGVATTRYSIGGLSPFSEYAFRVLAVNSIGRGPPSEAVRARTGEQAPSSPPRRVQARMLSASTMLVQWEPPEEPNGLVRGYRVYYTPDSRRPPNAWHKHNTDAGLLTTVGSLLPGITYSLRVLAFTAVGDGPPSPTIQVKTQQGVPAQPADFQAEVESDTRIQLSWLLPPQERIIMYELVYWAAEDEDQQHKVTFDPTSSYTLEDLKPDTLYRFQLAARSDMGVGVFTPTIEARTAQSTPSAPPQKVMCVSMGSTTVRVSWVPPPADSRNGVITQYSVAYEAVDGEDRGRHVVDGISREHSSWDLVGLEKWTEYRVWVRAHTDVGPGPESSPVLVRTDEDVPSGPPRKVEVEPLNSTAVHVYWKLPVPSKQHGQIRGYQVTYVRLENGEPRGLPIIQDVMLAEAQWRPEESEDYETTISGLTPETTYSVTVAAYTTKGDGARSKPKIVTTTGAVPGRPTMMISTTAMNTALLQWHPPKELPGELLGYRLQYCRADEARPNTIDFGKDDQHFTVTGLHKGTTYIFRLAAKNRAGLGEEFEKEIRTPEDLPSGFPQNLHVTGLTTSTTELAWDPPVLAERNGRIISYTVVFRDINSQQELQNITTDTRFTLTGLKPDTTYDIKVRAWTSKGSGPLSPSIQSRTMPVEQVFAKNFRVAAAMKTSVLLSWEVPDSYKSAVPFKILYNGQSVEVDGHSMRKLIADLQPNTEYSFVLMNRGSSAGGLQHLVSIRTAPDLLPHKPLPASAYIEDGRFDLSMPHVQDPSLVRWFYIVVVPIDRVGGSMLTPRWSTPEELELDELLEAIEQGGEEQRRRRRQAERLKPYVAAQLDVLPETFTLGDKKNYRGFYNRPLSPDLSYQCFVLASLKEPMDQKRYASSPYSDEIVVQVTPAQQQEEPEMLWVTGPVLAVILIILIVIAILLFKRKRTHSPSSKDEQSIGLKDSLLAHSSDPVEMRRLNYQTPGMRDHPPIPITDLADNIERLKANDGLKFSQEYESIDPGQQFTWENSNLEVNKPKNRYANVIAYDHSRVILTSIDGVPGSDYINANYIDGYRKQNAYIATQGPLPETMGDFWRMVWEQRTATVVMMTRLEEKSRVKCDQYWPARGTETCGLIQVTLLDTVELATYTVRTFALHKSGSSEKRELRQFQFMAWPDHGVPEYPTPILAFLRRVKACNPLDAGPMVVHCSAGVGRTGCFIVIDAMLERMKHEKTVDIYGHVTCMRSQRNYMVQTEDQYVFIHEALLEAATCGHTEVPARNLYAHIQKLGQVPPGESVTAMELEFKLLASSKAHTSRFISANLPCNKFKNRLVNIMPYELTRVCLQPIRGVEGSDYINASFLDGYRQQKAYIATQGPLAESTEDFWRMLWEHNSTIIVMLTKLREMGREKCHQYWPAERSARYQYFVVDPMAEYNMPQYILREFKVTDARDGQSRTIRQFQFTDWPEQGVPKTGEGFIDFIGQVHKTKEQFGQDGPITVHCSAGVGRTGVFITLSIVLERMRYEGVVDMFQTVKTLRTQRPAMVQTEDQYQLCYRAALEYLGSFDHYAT

[3] = biological target: T2, Tyrosine-protein phosphatase non-receptor type 6 (Homo sapiens, UniProt P29350); assay: Inhibition of SHP1 (unknown origin) using pNPP as substrate at 20 ug/ml by spectrophotometry
T2 sequence (P29350 whole entry): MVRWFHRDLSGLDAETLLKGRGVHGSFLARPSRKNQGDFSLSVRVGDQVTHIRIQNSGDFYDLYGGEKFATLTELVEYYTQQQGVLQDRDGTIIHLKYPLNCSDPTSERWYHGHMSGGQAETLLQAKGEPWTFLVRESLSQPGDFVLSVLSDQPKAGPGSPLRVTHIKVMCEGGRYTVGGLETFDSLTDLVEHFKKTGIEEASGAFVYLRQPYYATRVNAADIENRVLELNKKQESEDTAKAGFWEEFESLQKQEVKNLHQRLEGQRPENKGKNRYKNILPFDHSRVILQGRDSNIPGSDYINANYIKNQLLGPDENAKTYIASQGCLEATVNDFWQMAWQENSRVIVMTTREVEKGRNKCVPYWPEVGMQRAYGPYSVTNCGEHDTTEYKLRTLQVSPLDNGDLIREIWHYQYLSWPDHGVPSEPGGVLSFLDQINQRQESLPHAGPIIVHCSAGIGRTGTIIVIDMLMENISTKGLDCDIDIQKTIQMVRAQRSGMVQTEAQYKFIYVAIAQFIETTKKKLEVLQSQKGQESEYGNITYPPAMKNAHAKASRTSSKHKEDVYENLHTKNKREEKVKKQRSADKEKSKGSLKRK

A549 = assay: Cytotoxicity against human A549 cells by SRB assay; type: functional, cell-based
[4] = biological target: T3, Tyrosine-protein phosphatase non-receptor type 1 (Homo sapiens, UniProt P18031); assay: Inhibition of purified recombinant PTP1B catalytic domain (unknown origin) using pNPP as substrate by spectrophotometry
T3 sequence (P18031 whole entry): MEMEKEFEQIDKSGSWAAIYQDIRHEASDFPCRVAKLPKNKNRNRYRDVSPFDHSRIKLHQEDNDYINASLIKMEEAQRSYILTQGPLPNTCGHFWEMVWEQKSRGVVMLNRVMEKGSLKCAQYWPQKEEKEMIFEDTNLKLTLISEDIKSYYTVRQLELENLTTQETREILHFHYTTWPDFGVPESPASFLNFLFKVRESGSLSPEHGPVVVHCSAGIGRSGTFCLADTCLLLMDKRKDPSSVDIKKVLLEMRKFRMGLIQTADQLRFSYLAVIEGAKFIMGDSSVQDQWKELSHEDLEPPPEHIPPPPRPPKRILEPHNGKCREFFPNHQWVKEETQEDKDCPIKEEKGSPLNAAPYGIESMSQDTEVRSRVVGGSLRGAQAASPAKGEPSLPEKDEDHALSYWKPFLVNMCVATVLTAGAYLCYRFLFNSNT

[5] = biological target: T4, M-phase inducer phosphatase 2 (Homo sapiens) (UniProt P30305); assay: Inhibition of CDC25B (unknown origin) using pNPP as substrate at 20 ug/ml by spectrophotometry
T4 sequence (whole entry): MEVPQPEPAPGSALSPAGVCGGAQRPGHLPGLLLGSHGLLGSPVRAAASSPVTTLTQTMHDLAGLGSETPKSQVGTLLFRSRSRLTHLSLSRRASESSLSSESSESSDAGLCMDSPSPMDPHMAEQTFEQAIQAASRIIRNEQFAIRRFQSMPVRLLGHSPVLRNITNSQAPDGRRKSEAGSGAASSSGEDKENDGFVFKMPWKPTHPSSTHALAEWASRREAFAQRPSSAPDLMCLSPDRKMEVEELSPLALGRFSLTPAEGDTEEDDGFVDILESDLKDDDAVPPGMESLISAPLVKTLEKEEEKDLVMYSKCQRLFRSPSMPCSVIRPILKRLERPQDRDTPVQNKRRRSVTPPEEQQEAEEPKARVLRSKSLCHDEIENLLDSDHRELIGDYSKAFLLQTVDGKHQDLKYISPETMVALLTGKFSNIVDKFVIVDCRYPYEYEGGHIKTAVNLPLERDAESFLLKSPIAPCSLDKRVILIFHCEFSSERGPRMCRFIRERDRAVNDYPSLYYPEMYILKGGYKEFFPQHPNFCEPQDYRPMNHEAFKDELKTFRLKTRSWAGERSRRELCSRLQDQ

[6] = Cytotoxicity against human HL60 cells by SRB assay; type: functional, cell-based; conditions: HL-60
[7] = biological target: T5, Tyrosine-protein phosphatase non-receptor type 11 (Homo sapiens) (UniProt Q06124); assay: Inhibition of SHP2 (unknown origin) using pNPP as substrate at 20 ug/ml by spectrophotometry
T5 sequence (whole entry): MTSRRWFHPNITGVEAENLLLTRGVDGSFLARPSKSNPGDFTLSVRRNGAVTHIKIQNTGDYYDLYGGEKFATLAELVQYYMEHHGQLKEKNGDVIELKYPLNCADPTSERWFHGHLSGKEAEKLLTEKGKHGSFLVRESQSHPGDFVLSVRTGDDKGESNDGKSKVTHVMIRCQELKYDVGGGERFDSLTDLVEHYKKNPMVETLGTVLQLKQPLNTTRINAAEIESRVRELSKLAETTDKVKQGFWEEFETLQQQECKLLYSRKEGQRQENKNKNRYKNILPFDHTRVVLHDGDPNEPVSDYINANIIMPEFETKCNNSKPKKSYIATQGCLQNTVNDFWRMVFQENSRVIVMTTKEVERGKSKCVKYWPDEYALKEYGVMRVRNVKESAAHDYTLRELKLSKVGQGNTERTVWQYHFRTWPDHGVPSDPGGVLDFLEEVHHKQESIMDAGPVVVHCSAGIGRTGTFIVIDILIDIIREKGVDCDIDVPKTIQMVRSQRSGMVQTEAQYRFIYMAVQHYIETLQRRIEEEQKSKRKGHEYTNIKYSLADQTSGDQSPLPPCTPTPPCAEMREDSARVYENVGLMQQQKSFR

SH-SY5Y = assay: Neuroprotective activity against amyloid beta(25 to 35)-induced cell damage in human SH-SY5Y cells assessed as increase in cell viability preincubated at 10 uM 2 hrs prior to challenge by MTT assay relative to control; type: functional
[8] = biological target: T6, Tyrosine-protein phosphatase non-receptor type 2 (Homo sapiens, UniProt P17706); assay: Inhibition of TC-PTP (unknown origin) using pNPP as substrate by spectrophotometry
T6 sequence (P17706 whole entry): T1 sequence (whole entry)

[9] = biological target: T7, M-phase inducer phosphatase 2 (Homo sapiens, UniProt P30305); assay: Inhibition of CDC25B (unknown origin) using pNPP as substrate by spectrophotometry
T7 sequence (P30305 whole entry): T4 sequence (whole entry)

[10] = biological target: T2, Tyrosine-protein phosphatase non-receptor type 6
Description: Inhibition of SHP1 (unknown origin) using pNPP as substrate by spectrophotometry

| Compound | inhibition [1] [%] | inhibition [2] [%] | inhibition [3] [%] | IC50 (A549) [µM] | IC50 [4] [µM] | inhibition [5] [%] | IC50 [6] [µM] | inhibition [7] [%] | Activity (SH-SY5Y) [%] | IC50 [8] [µM] | IC50 [9] [µM] | IC50 [10] [µM] |
| --- | --- | --- | --- | --- | --- | --- | --- | --- | --- | --- | --- | --- |
| CC(=O)OC/C=C(\C)CCC[C@H](C)CCC[C@H](C)CCCC(C)C | < 50 | < 50 | < 50 | > 100 | 50 | < 50 | > 100 | < 50 | – | – | – | – |
| C/C(=C\CO)CCC[C@H](C)CCC[C@H](C)CCCC(C)C [TRANS-PHYTOL] | < 50 | < 50 | < 50 | > 100 | 32.6 | < 50 | > 100 | < 50 | – | – | – | – |
| C=C[C@](O)(CC[C@@H](C)[C@H]1CC[C@H]2[C@@H]3CC=C4C[C@@H](O)CC[C@]4(C)[C@H]3CC[C@]12C)C(C)C | < 50 | < 50 | < 50 | > 100 | 41.7 | < 50 | > 100 | < 50 | – | – | – | – |
| CC(=O)[C@]1(O)C(C)=C(C)C(=O)[C@@]12CC[C@](C)(CCC[C@H](C)CCC[C@H](C)CCCC(C)C)O2 | – | – | – | > 100 | – | – | 67.4 | – | – | – | – | – |
| O=C(O[C@@H]1Cc2c(O)cc(O)cc2O[C@@H]1c1cc(O)c(O)c(O)c1)c1cc(O)c(O)c(O)c1 [EPIGALOCATECHIN GALLATE] | – | – | – | – | – | – | – | – | 16.57 | – | – | – |
| COc1cccc2c1C(=O)c1c(O)c3c(c(O)c1C2=O)C[C@@](O)(C(=O)CO)C[C@@H]3O[C@H]1C[C@H](N)[C@H](O)[C@H](C)O1 [DOXORUBICIN] | – | – | – | – | – | – | 0.123 | – | – | – | – | – |
| C=C[C@@](O)(CC[C@@H](C)[C@H]1CC[C@H]2[C@@H]3CC=C4C[C@@H](O)CC[C@]4(C)[C@H]3CC[C@]12C)C(C)C | < 50 | < 50 | < 50 | > 100 | 10.3 | < 50 | > 100 | < 50 | – | – | – | – |
| CC1=C(C)C(=O)[C@@]2(CC[C@@](C)(CCC[C@H](C)CCC[C@H](C)CCCC(C)C)O2)[C@@](C)(O)C1=O | < 50 | < 50 | < 50 | > 100 | 11 | < 50 | > 100 | < 50 | 13.85 | – | – | – |
| CC(=O)/C(=C/C[C@@H](C)[C@H]1CC[C@H]2[C@@H]3CC=C4C[C@@H](O)CC[C@]4(C)[C@H]3CC[C@]12C)C(C)C | < 50 | < 50 | < 50 | > 100 | 3.8 | < 50 | > 100 | < 50 | 11.31 | – | – | – |
| CC1=C(CCC(=O)OC/C=C(\C)CCC[C@H](C)CCC[C@H](C)CCCC(C)C)C(=O)NC1=O | – | < 50 | < 50 | > 100 | 2.3 | – | > 100 | < 50 | – | 12.6 | 42.9 | – |
| CC1(C)CC[C@]2(C(=O)O)CC[C@]3(C)C(=CC[C@@H]4[C@@]5(C)CC[C@H](O)C(C)(C)[C@@H]5CC[C@]43C)[C@@H]2C1 [OLEANOLIC_ACID] | – | < 50 | < 50 | – | – | – | – | < 50 | – | – | 0.98 | – |
| SODIUM ORTHOVANAD | – | – | – | – | – | – | – | – | – | – | – | 16.5 |
| CC1=C(C)C(=O)C(CC[C@](C)(O)CCC[C@H](C)CCC[C@H](C)CCCC(C)C)=C(C)C1=O | – | < 50 | < 50 | 85.3 | 3.85 | – | 45 | < 50 | – | 35.1 | 23.2 | – |
| CC(C)C(=O)/C=C/[C@@H](C)[C@H]1CC[C@H]2[C@@H]3CC=C4C[C@@H](O)CC[C@]4(C)[C@H]3CC[C@]12C | < 50 | < 50 | < 50 | > 100 | 50 | < 50 | > 100 | < 50 | 15.98 | – | – | – |
| CC1=CC(=O)OC1CC[C@H](C)CCC[C@H](C)CCCC(C)C (stereo not given in full) | – | – | – | – | – | – | 49.3 | – | – | – | – | – |
